Data taken from patent publication US12396961B2, “Compounds and compositions for intracellular delivery of agents” (ModernaTX, Inc., priority 2015, dated 2025).

Columns and labels:
[1] = tested on: luciferase (Luc) mRNA expression; experiment: Luc expression (AUC) in CD-1 mice relative to MC3; format: in vivo; conditions: for Liver/Spleen Ratio / Lipid/MC3 AUC: Table 7c; for Lipid/MC3 AUC: AUC relative to MC3; for Lipid/MC3 AUC CD-1 mice 0.5 mpk: Table 7b, Luc expression; for Lipid/MC3 Luc CD-1 (mice): Luc expression relative to MC3, CD-1 mice
Protocol: FIG. 15 is a graph summarizing luciferase expression levels at 6 h after administration of nanoparticle compositions containing compounds of the disclosure to CD-1 mice at a dose of 0.5 mpk. Total light flux values were acquired via body luminescent imaging (BLI) 6 h after administration. In this Figure, the numbers 1-7 and 10 refer to the compositions containing Compounds 4-10 and MC3 respectively.
In contrast, hEPO expression in rats induced by administration of nanoparticle composition including compound according to one of formulae (I), (Ia1)-(Ia6), (Ib), (II), (IIa), (III), and (IIIa) was substantially lower than that measured for MC3. […] Table 7c and 7d show additional protein expressions and clearance data from compositions with various compounds disclosed herein as compared to with MC3.

[2] = Lipid clearance: % dose remaining in mice (liver) 6 h and 24 h after administration of nanoparticle compositions; format: in vivo, CD-1 mice; conditions: Table 7c, species not given
[3] = Particle size and polydispersity index (Zetasizer Nano ZS); format: physicochemical; conditions: Table 1; for PDI: DOPE 40:20:38.5:1.5, Luc mRNA
Method in brief: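 Particle size and polydispersity index were measured by dynamic light scattering on a Zetasizer Nano ZS in 1×PBS. Zeta potential was measured in 15 mM PBS.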

[4] = tested on: LDLr mRNA / Luc expression; experiment: Expression (AUC) in LDLr−/− mice relative to KL22; format: in vivo; conditions: Table 7b
[5] = tested on: luciferase (Luc) mRNA expression; experiment: Expression of Luc, bioluminescence (total flux) after intravenous administration to mice; format: in vivo; conditions: mice; in words
Protocol: In order to monitor how effectively various nanoparticle compositions deliver therapeutic and/or prophylactic agents to targeted cells, different nanoparticle compositions including a particular therapeutic and/or prophylactic agent (for example, a modified or naturally occurring RNA such as an mRNA) are prepared and administered to rodent populations. Mice are intravenously, intramuscularly, intraarterially, or intratumorally administered a single dose including a nanoparticle composition with a formulation such as those provided in Table 1. In some instances, mice may be made to inhale doses. Dose sizes may range from 0.001 mg/kg to 10 mg/kg, where 10 mg/kg describes a dose including 10 mg of a therapeutic and/or prophylactic agent in a nanoparticle composition for each 1 kg of body mass of the mouse. A control composition including PBS may also be employed.
Upon administration of nanoparticle compositions to mice, dose delivery profiles, dose responses, and toxicity of particular formulations and doses thereof can be measured by enzyme-linked immunosorbent assays (ELISA), bioluminescent imaging, or other methods. For nanoparticle compositions including mRNA, time courses of protein expression can also be evaluated. Samples collected from the rodents for evaluation may include blood, sera, and tissue (for example, muscle tissue from the site of an intramuscular injection and internal tissue); sample collection may involve sacrifice of the animals.
The efficacy of the nanoparticle compositions presented in Tables 1, la, 17-1, 19-1, 20-1 and 21-1 was evaluated with a bioluminescence study. Formulations were administered intravenously to mice (n=6) at a dosage of 0.5 mg/kg (mpk) and bioluminescence measured at 3, 6, and 24 hour time points. The standard MC3 formulation and a PBS control were evaluated for comparison.

hEPO mRNA expression = experiment: Expression of hEPO in mice (CD-1); format: in vivo, CD-1 mice; conditions: mice; in words
From the text: FIG. 12 is a set of graphs illustrating hEPO expression levels in CD-1 mice dosed with compounds of the disclosure, compared to MC3. PBS is used as control. […] In graphs A-C numbers 1-14 refer to compositions containing the following: 1: Compound 73, 2: Compound 80, 3: Compound 70; 4: Compound 81; 5: Compound 69; 6: Compound 82; 7: Compound 83; 8: Compound 62; 9: Compound 84; 10: Compound 85; 11: Compound 86; 12: Compound 87; 13: MC3; 14: PBS.
FIG. 13 is a graph showing hEPO levels (pg/mL) in CD-1 mice up to −25 h after administration of a nanoparticle composition containing compounds of the disclosure, compared to a composition containing MC3. Numbers 1-13 refer to compositions containing the following: 1: Compound 73, 2: Compound 80, 3: Compound 70; 4: Compound 81; 5: Compound 69; 6: Compound 82; 7: Compound 83; 8: Compound 62; 9: Compound 84; 10: Compound 85; 11: Compound 86; 12: Compound 87; 13: MC3. […]

[6] = Lipid levels (clearance) in liver and spleen 48 hours after administration; format: in vivo, rats; conditions: rat liver, 48 h
Protocol: Formulations were administered intravenously to rats (n=3 or 6) at a dosage of 0.2 mg/kg or 0.5 mg/kg (mpk) and hEPO levels measured at 3, 6, and 24 hour time points. After the 48 hour time point, livers and spleens were harvested and frozen.
The amount of lipid in the liver and spleen 48 hours after administration of a nanoparticle composition was also measured. […] In contrast, approximately 60% of doses including MC3 or Compound 22 remained in the liver after 48 hours. Less than 3% of the dose remained in the spleen for each composition tested.

SMILES	Liver/Spleen Ratio [1]	Lipid/MC3 AUC [1]	% Dose Remaining 24 hr [2]	PDI [3]	Lipid/MC3 AUC CD-1 mice 0.5 mpk [1]	Lipid/KL22 AUC LDLr−/− mice 0.5 mpk, LDLr [4]	also measured
CCCCCCCCCN(CCCCCCC(=O)OCC)CCC1CCN(C(=O)CN(CCCCCCCCC)CCN(CCCCCCCCC)CCCCCCCCC)CC1 [Compound 58, Ethyl 7-((2-(1-(N-(2-(dinonylamino)ethyl)-N-nonylglycyl)piperidin-4-yl)ethyl)(nonyl)amino)heptanoate]	11	0.97	0.61%				
CCCCCCCCCN(CCCCCCCCC)CCN(CCCCCCCCC)CC(=O)N1CCN(C(=O)CN(CCCCCCCCC)CCCOC(=O)CCCCC)CC1 [Compound 56, 3-((2-(4-(N-(2-(Dinonylamino)ethyl)-N-nonylglycyl)piperazin-1-yl)-2-oxoethyl)(nonyl)amino)propyl Hexanoate]	29	1.25	0.16%				
CCCCCCCCCCCCN(CCCCCCCCCCCC)CC(=O)N1CCN(C(=O)CN(CCCCCCCCCCCC)CCN(CCCCCCCCC)CCCCCCCCC)CC1 [Compound 9, 2-(Didodecylamino)-1-(4-(N-(2-(dinonylamino)ethyl)-N-dodecylglycyl)piperazin-1-yl)ethan-1-one]				0.170	0.73	0.58	Size (nm) ([3]; lipid:DOPE:Chol:PEG-DMG 40:20:38.5:1.5, Luc mRNA, MC3 standard formulation): 78.0 nm
CCCCCCCCCN(CCCCCCCC(=O)OC)CCC1CCN(C(=O)CN(CCCCCCCCC)CCN(CCCCCCCCC)CCCCCCCCC)CC1 [Compound 57, Methyl 8-((2-(1-(N-(2-(dinonylamino)ethyl)-N-nonylglycyl)piperidin-4-yl)ethyl)(nonyl)amino)octanoate]	15	0.85	0.24%				% Dose Remaining 6 hr ([2]; 6 hr): 0.88%
CCCCCCCCCN(CCCOC(=O)CCCCC)CCC1CCN(C(=O)CN(CCCCCCCCC)CCN(CCCCCCCCC)CCCCCCCCC)CC1 [Compound 61, 3-((2-(1-(N-(2-(Dinonylamino)ethyl)-N-nonylglycyl)piperidin-4-yl)ethyl)(nonyl)amino)propyl Hexanoate]	30	3.27	0.13%				
CCCCCCCCCN(CCCCCCCCC)CCN(CCCCCCCCC)CC(=O)N1CCN(C(=O)CN(CCCC(=O)OCCCCC)CCCC(=O)OCCCCC)CC1 [Compound 72, Dipentyl 4,4′-((2-(4-(N-(2-(dinonylamino)ethyl)-N-nonylglycyl)piperazin-1-yl)-2-oxoethyl)azanediyl)dibutyrate]	6	0.46	6.40%				
CCCCCCCCCCCCN(CCCCCCCCCCCC)CCN(CCCCCCCCCCCC)CCN1CCN(CCN(CCCCCC(=O)OCCCCC)CCCCCC(=O)OCCCCC)CC1 [Compound 14, Dipentyl 6,6′-((2-(4-(2-((2-(didodecylamino)ethyl)(dodecyl)amino)ethyl)piperazin-1-yl)ethyl)azanediyl)dihexanoate]				0.008			Luc expression in mice compared with MC3 (Table 7a) [5]: significantly lower; Lipid/MC3 Luc CD-1 (mice) [1]: 0.070
CCCCCCCCCCCCN(CCCCCCCCCCCC)CC(=O)N1CCN(C(=O)CN(CCCCCCCCC)CCN(CCCCCCCCC)CCCCCCCCC)CC1 [Compound 8, 2-(Didodecylamino)-1-(4-(N-(2-(dinonylamino)ethyl)-N-nonylglycyl)piperazin-1-yl)ethan-1-one]				0.110	2.33	3.74	
CCCCCCCCCCCCN(CCCCCCCCCCCC)CCN(CCCCCCCCCCCC)CC(=O)N1CCN(C(=O)CN(CCCCCCCCC)CCCCCCCCC)CC1 [Compound 7, 2-((2-(Didodecylamino)ethyl)(dodecyl)amino)-1-(4-(dinonylglycyl)piperazin-1-yl)ethan-1-one]				0.130	1.51	2.46	
CCCCCCCCCCCCN(CCCCCCCCCCCC)CCN(CCCCCCCCCCCC)CCN1CCN(CCN(CCCCCCCCCCCC)CCCCCC(=O)OCCCCC)CC1 [Compound 12, Pentyl 6-((2-(4-(2-((2-(didodecylamino)ethyl)(dodecyl)amino)ethyl)piperazin-1-yl)ethyl)(dodecyl)amino)hexanoate]				0.096			Luc expression in mice compared with MC3 (Table 7a) [5]: significantly lower; Lipid/MC3 Luc CD-1 (mice) [1]: 0.21; hEPO expression in mice compared with MC3 (Table 7a) (hEPO mRNA expression): substantially higher
CCCCCCCCCN(CCCCCCCCC)CCN(CCCCCCCCC)CC(=O)N1CCN(C(=O)CN(CCCCCCCCC)CCCCCCC(=O)OCC)CC1 [Compound 53, Ethyl 7-((2-(4-(N-(2-(dinonylamino)ethyl)-N-nonylglycyl)piperazin-1-yl)-2-oxoethyl)(nonyl)amino)heptanoate]	17	0.07	0.77%				
CCCCCCCCCCCCN(CCCCCCCCCCCC)CCN(CCCCCCCCC)CC(=O)N1CCN(C(=O)CN(CCCCCCCCCCCC)CCCCCCCCCCCC)CC1 [Compound 10, 2-(Didodecylamino)-1-(4-(N-(2-(didodecylamino)ethyl)-N-nonylglycyl)piperazin-1-yl)ethan-1-one]				0.130	1.14	0.71	
CCCCCCCCCCCCN(CCCCCCCCCCCC)CCN(CCCCCCCCC)CC(=O)N1CCN(C(=O)CN(CCCCCCCCC)CCCCCCCCC)CC1 [Compound 6, 2-((2-(Didodecylamino)ethyl)(nonyl)amino)-1-(4-(dinonylglycyl)piperazin-1-yl)ethan-1-one]				0.160	1.72	0.37	
CCCCCCCCCCCCN(CCN(CCCCCCCCC)CCCCCCCCC)CC(=O)N1CCN(C(=O)CN(CCCCCCCCC)CCCCCCCCC)CC1 [Compound 5, 2-(Dinonylamino)-1-(4-(N-(2-(dinonylamino)ethyl)-N-dodecylglycyl)piperazin-1-yl)ethan-1-one]				0.140	2.62	1.86	
CCCCCCCCCN(CCCCCCCCC)CCN(CCCCCCCCC)CC(=O)N1CCN(C(=O)CN(CCCCCCCCC)CCCCC(=O)OCCCC)CC1 [Compound 55, Butyl 5-((2-(4-(N-(2-(dinonylamino)ethyl)-N-nonylglycyl)piperazin-1-yl)-2-oxoethyl)(nonyl)amino)pentanoate]	9	0.14	1.60%				
CCCCCCCCCN(CCCCCCCCC)CCN(CCCCCCCCC)CC(=O)N1CCN(C(=O)CN(CCCCCCCCC)CCCC(=O)OCCCCC)CC1 [Compound 45, Pentyl 4-((2-(4-(N-(2-(dinonylamino)ethyl)-N-nonylglycyl)piperazin-1-yl)-2-oxoethyl)(nonyl)amino)butanoate]				0.200			% dose remaining Rat liver (48 h) [6]: 8.57%; Lipid/MC3 Luc CD-1 (mice) [1]: 6.50
